Measurements taken from patent US12492403B2, “Aptamers and the use thereof in the treatment of cancer” (FUNDACIÓN PARA LA INVESTIGACIÓN BIOMÉDICA DEL HOSPITAL …, priority 2018, dated 2025).

Key:
Type in all cases: cell-based, human
[1] = test system: MDA-MB-468 cells; experiment: Colony formation assay; details: MDA-MB-468, 50 nM, colonies quantified 9-12 days after seeding
Procedure: (§1) FIGS. 12A & 12B. Effect of apMNKQ2 on cell clonogenicity. MCF7, MDA-MB-231, and MDA-MB-468 cells were seeded in 24-well plates at a density of 3×10^4 cells/well and transfected at 24 hours with apMNKQ2 at the previously established working concentrations (FIG. 12A). After 24 hours, the cells were collected, counted, and seeded in 6-well plates with 1000 cells/well for MCF7 and MDA-MB-231 and with 5000 cells/well for MDA-MB-468 (FIG. 12B). The boxes represent the mean±the maximum and minimum of 4-5 independent experiments (*p<0.05 and **p<0.01 with respect to the control aptamer AT).
(§2) To perform these assays, 3×10^4 cells/well were seeded in 24-well plates with every 2 wells being considered an experimental point. At 16-24 hours, the cells were transfected with apMNKQ2 or the control aptamer. At 16-24 hours post-transfection, the cells of every two wells were pooled, resuspended in the corresponding medium, counted, and after performing the suitable dilutions, reseeded 1×10^3 or 5×10^3 cells/well in duplicate in 6-well plates. These plates were left in the incubator with a moisture-saturated environment at 37° C. and 5% CO2/[…] for 8-9 days. After this time, the colonies were fixed with methanol (Merck, Germany) for 10 minutes, stained with 0.02% giemsa (Sigma-Aldrich, USA) for 30 minutes, washed with water to eliminate the remaining dye, and left to dry at room temperature. To count the colonies, a colony counter pen (Heathrow Scientific® LLC, United Kingdom) and a magnifying glass (1.75×) (Bel-Art Scienceware, USA) were used. The results were expressed in number of colonies and normalized in percentage with respect to the control.
(§3) For these assays, 1000 cells/well in 6-well plates had previously been established for the MCF7 and MDA-MB-231 lines, however, the PE of the MDA-MB-468 cells was lower (11.5±5.3%), so 5000 cells were seeded. The cells were transfected with apMNKQ2 and the control AT, and collected and reseeded at 24 hours to perform the colony formation assay. The colonies were quantified 9-12 days after seeding. […]

[2] = test system: MDA-MB-231 cells; experiment: Colony formation assay; details: MDA-MB-231, 400 nM, colonies quantified 9-12 days after seeding
Procedure: as §1, §2, §3

[3] = test system: MCF7 cells; experiment: Colony formation assay; details: MCF7, 150 nM, colonies quantified 9-12 days after seeding
Procedure: as §1, §2, §3

[4] = test system: MCF7, MDA-MB-231, and MDAMB-468 cells; experiment: Aptamer penetration into cells (Alexa-488 fluorescence microscopy); details: Alexa fluor 488-conjugated aptamer 250 nM added to medium, 24 hours, compared with lipofectamine transfection
Procedure: FIGS. 16A & 16B. Study of aptamer apMNKQ2 penetration into cells. MCF7, MDA-MB-231, and MDAMB-468 cells were seeded in 24-well plates with a cover glass at a density of 3×10^4 cells/well, with the transfection/addition of apMNKQ2 labeled with Alexa-488 at 250 nM at 24 hours. Twenty-four hours after transfection, the cells were fixed, stained with Hoechst, and mounted on slides with Prolong™ mounting medium. The number refers to the intensity of the aptamer measured with the imageJ program and expressed in arbitrary units.
To analyze cell penetration by apMNKQ2, 3×10^4 cells/well were seeded on cover glasses and the structured, Alexa fluor 488-conjugated aptamer at 250 nM was added to the cell medium at 24 hours. In parallel, the aptamer was transfected with lipofectamine at the same concentration. After 24 hours, the cells were fixed and stained with Hoechst.

[5] = test system: caspase 3; experiment: Caspase 3 activity by western blot of PARP and α-spectrin fragments; details: MCF7, MDA-MB-231, and MDA-MB-468 cells, 24 hours post-transfection
Source text: FIGS. 11A & 11B. Effect of apMNKQ2 on caspase 3 activity by means of PARP and α-spectrin substrates in breast cell lines. Immunodetection with specific antibodies by means of 12% SDS-PAGE of “cleaved” PARP (FIG. 11A) and α-spectrin (FIG. 11B) for detecting the proteolytic activity of caspase 3 after the transfection of lines MCF7, MDA-MB-231, and MDA-MB-468 with apMNKQ2 and the control aptamer AT. The activity of this protease gives rise to characteristic proteolysis patterns with specific fragments of 89 kDa for PARP and 150 and 120 kDa for α-spectrin.
Caspase 3 activity was assessed by means of western blot with two endogenous substrates of this protein: • the enzyme poly ADP-ribose (PARP), fractionated in late apoptotic stages, using a specific antibody that only recognizes the PARP fragment processed by caspase 3. • the protein α-spectrin, with an antibody capable of recognizing the complete form and the fragments obtained after being broken down by caspase 3. Colony Formation Assays
Similarly, to verify that apMNKQ2 is capable of increasing apoptosis in the cell lines, the activity of caspase 3, a protease activated in apoptosis, was assessed. The western blot study was performed on two endogenous substrates of caspase 3: the enzyme poly ADP-ribose (PARP), fractionated in late apoptotic stages, and the protein α-spectrin. […]

## 5′TGGGGTGGGCGGGCGGGGGTGGGGGTGGT-3′ (DNA, backbone and methylation of C not given here; further chemistry not fully specified) [apMNKQ2]
[1]
  inhibition in colony formation with respect to control aptamer AT: statistically significant
[2]
  inhibition in colony formation with respect to control aptamer AT: statistically significant
[3]
  inhibition in colony formation with respect to control aptamer AT: statistically significant
[4]
  penetration into cells without transfectant: capable of only entering the cells, although with a lower intensity
[5]
  caspase 3 activity (proteolysis fragments of PARP and α-spectrin): apoptotic effect
